Measured values from patent publication US8987314B2, “Amide, urea or sulfone amide linked benzothiazole inhibitors of endothelial lipase” (Bristol-Myers Squibb Company, priority 2012, dated 2015).

Assays:
[1] = molecular target: Endothelial lipase (EL) (Homo sapiens (Human), UniProt Q9Y5X9); test: EL assay: endothelial lipase activity with fluorescent substrate A10070 in DMPG vesicles; assay type: biochemical
Outline: (§1)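 Vesicles prepared: A10070 dried with DMPG, resuspended in HEPES pH 8.0/NaCl/EDTA, sonicated on ice. Enzyme incubated with compound 30 min at 37° C. Reaction started with 1:10 diluted vesicles. Fluorescence (490/530 nm) followed 60 min; slope from 300–900 secs gives rate.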

[2] = molecular target: hepatic lipase (HL) (Homo sapiens (Human), UniProt P11150); test: HL assay: hepatic lipase activity with fluorescent substrate A10070 in DMPG vesicles; assay type: biochemical
Outline: as §1

Sequence of hepatic lipase (HL) (P11150 23-499, species assumed): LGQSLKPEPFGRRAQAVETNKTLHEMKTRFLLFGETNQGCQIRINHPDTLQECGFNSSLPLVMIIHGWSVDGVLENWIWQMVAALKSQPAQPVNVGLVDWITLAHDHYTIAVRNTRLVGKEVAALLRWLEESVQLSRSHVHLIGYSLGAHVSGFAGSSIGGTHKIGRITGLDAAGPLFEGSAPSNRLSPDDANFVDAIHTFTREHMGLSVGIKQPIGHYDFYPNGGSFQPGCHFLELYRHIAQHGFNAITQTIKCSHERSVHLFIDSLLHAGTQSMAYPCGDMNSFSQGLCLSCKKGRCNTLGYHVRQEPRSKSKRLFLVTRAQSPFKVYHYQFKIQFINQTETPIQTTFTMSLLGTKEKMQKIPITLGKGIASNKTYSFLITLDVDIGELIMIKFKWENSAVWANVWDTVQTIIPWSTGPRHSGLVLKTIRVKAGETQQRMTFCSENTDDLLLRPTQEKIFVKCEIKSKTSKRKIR
Sequence of Endothelial lipase (EL) (Q9Y5X9 21-500): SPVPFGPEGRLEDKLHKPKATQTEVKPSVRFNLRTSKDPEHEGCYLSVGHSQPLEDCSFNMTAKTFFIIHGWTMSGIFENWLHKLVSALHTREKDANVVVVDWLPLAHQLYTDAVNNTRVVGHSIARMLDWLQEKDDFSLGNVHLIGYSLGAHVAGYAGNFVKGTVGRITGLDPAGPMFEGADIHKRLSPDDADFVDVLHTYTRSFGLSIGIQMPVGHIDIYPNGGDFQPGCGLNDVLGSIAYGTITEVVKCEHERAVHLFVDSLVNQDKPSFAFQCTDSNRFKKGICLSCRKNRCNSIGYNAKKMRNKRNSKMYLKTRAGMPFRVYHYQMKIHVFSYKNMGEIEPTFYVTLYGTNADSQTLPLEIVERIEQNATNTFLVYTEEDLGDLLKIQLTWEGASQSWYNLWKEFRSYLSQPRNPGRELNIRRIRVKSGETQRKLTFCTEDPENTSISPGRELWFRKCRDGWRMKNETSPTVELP

SMILES	IC50 [1] [µM]	IC50 [2] [µM]
CC(=O)Nc1ccc(-c2ccc3nc(C(C(=O)NCCS(N)(=O)=O)S(=O)(=O)CCC(F)(F)F)sc3c2)cc1 (centres unmarked) [Example B236, 2-[6-(4-acetamidophenyl)-1,3-benzothiazol-2-yl]-N-(2-sulfamoylethyl)-2-(3,3,3-trifluoropropane-sulfonyl)acetamide]	0.0008	0.0553
NS(=O)(=O)CCNC(=O)C(c1nc2ccc(-c3ccc(S(=O)(=O)NCCO)cc3)cc2s1)S(=O)(=O)Cc1ccc(F)cc1 (centres unmarked) [Example B238, 2-[(4-fluorophenyl)methane-sulfonyl]-2-(6-{4-[(2-hydroxyethyl)sulfa-moyl]phenyl}-1,3-benzothiazol-2-yl)-N-(2-sulfamoylethyl)a-cetamide]	0.0098	0.234
NS(=O)(=O)CCNC(=O)C(c1nc2ccc(-c3ccc(CCO)cc3)cc2s1)S(=O)(=O)Cc1ccc(F)cc1 (centres unmarked) [Example B240, 2-[(4-fluorophenyl)methane-sulfonyl]-2-{6-[4-(2-hydroxyethyl)phenyl]-1,3-benzothiazol-2-yl}-N-(2-sulfamoylethyl)a-cetamide]	0.0257	0.0766
NS(=O)(=O)CCNC(=O)C(c1nc2ccc(-c3cccc(Cl)c3)cc2s1)S(=O)(=O)Cc1ccc(F)cc1 (centres unmarked) [Example B243, 2-[6-(3-chlorophenyl)-1,3-benzothiazol-2-yl]-2-[(4-fluorophenyl)methanesulfon-yl]-N-(2-sulfamoylethyl)a-cetamide]	0.0048	0.0024
COC(C)(C)CNC(=O)c1ccc(-c2ccc3nc(C(C(=O)NCCS(N)(=O)=O)S(=O)(=O)CC4CC4)sc3c2)cc1 (centres unmarked) [Example B244, 4-(2-{cyclopropylmethane-sulfonyl[(2-sulfamoyl-ethyl)carbamoyl]methyl}-1,3-benzothiazol-6-yl)-N-(2-methoxy-2-methyl-propyl)benzamide]	0.0009	0.012
NS(=O)(=O)CCNC(=O)C(c1nc2ccc(-c3ccc(CO)cc3)cc2s1)S(=O)(=O)Cc1ccc(F)cc1 (centres unmarked) [Example B245, 2-[(4-fluorophenyl)meth-anesulfonyl]-2-{6-[4-(hydroxymethyl)phenyl]-1,3-benzothiazol-2-yl}-N-(2-sulfamoylethyl)a-cetamide]	0.0021	0.13
COCCN(C)C(=O)c1ccc(-c2ccc3nc(C(C(=O)NCCS(N)(=O)=O)S(=O)(=O)CC4CC4)sc3c2)cc1F (centres unmarked) [Example B247, 4-(2-{cyclopropylmethane-sulfonyl[(2-sulfamoyl-ethyl)carbamoyl]methyl}-1,3-benzothiazol-6-yl)-2-fluoro-N-(2-methoxy-ethyl)-N-methylbenzamide]	0.0061	0.127
COCC(C)(C)NC(=O)c1ccc(-c2ccc3nc(C(C(=O)NCCS(N)(=O)=O)S(=O)(=O)CC4CC4)sc3c2)cc1 (centres unmarked) [Example B248, 4-(2-{cyclopropylmethane-sulfonyl[(2-sulfamoyl-ethyl)carbamoyl]methyl}-1,3-benzothiazol-6-yl)-N-(1-methoxy-2-methyl-propan-2-yl)benzamide]	0.0075	0.0176
COCC(C)(C)NC(=O)c1ccc(-c2ccc3nc(C(C(=O)NCCS(N)(=O)=O)S(=O)(=O)Cc4ccc(OC(F)(F)F)cc4)sc3c2)cc1 (centres unmarked) [Example B249, N-(1-methoxy-2-methyl-propan-2-yl)-4-(2-{[(2-sulfamoylethyl)carbamoyl][4-(trifluoromethoxy)phen-yl]methanesulfonyl-methyl}-1,3-benzothiazol-6-yl)benzamide]	0.0083	0.0294
C[C@H]1CN(C(=O)c2ccc(-c3ccc4nc(C(C(=O)NCCS(N)(=O)=O)S(=O)(=O)CC5CC5)sc4c3)cc2)CCO1 (stereo partly drawn) [Example B251, 2-cyclopropylmethane-sulfonyl-2-(6-{4-[(2S)-2-methylmorpholine-4-carbonyl]phenyl}-1,3-benzothiazol-2-yl)-N-(2-sulfamoylethyl)acetamide]	0.0026	0.363
Cc1nnc(CNC(=O)C(c2nc3ccc(-c4ccc(O)cc4)cc3s2)S(=O)(=O)Cc2ccccc2)o1 (centres unmarked) [Example B254, 2-[6-(4-hydroxyphenyl)-1,3-benzothiazol-2-yl]-N-[(5-methyl-1,3,4-oxadiazol-2-yl)methyl]-2-phenylmethanesulfonyl-acetamide]	0.294	0.259
Cc1nnc(CNC(=O)C(c2nc3ccc(-c4cccc(N(C)C)c4)cc3s2)S(=O)(=O)Cc2ccccc2)o1 (centres unmarked) [Example B255, 2-{6-[3-(dimethylamino)phen-yl]-1,3-benzothiazol-2-yl}-N-[(5-methyl-1,3,4-oxadiazol-2-yl)methyl]-2-phenylmethanesulfonyl-acetamide]	0.225	0.0435
CS(=O)(=O)C(C(=O)NCc1cccc(S(N)(=O)=O)c1)c1nc2ccc(-c3ccccc3)cc2s1 (centres unmarked) [Example B256, 2-methanesulfonyl-2-(6-phenyl-1,3-benzothiazol-2-yl)-N-[(3-sulfamoylphen-yl)methyl]acetamide]	0.19	0.0147
COCCS(=O)(=O)C(C(=O)NCc1nnc(C)o1)c1nc2cc(F)c(-c3ccc(C(=O)N4CCCC4)cc3)cc2s1 (centres unmarked) [Example B262, 2-{5-fluoro-6-[4-(pyrrolidine-1-carbonyl)phen-yl]-1,3-benzothiazol-2-yl}-2-(2-methoxy-ethanesulfonyl)-N-[(5-methyl-1,3,4-oxadiazol-2-yl)methyl]acetamide]	0.102	0.374

Further compounds by falling IC50 [1], results first:

IC50 [1] [µM]	IC50 [2] [µM]	SMILES
0.121	0.208	COCCS(=O)(=O)C(C(=O)NCc1nnc(C)o1)c1nc2cc(F)c(-c3ccc(C(=O)N(C)C)c(F)c3)cc2s1 (centres unmarked) [Example B259, 2-fluoro-4-{5-fluoro-2-[(2-methoxyethanesulfon-yl)({[(5-methyl-1,3,4-oxadiazol-2-yl)methyl]car-bamoyl})methyl]-1,3-benzothiazol-6-yl}-N,N-dimethylbenzamide]
0.101	0.765	COCCS(=O)(=O)C(C(=O)NCc1nnc(C)o1)c1nc2cc(F)c(-c3ccc(C(=O)N4CCCC4)c(F)c3)cc2s1 (centres unmarked) [Example B261, 2-{5-fluoro-6-[3-fluoro-4-(pyrrolidine-1-carbonyl)phen-yl]-1,3-benzothiazol-2-yl}-2-(2-methoxy-ethanesulfonyl)-N-[(5-methyl-1,3,4-oxadiazol-2-yl)methyl]acetamide]
0.067	1.34	COCCS(=O)(=O)C(C(=O)NCc1nnc(C)o1)c1nc2cc(F)c(-c3ccc(C(=O)N4CC(C)(O)C4)cc3)cc2s1 (centres unmarked) [Example B260, 2-{5-fluoro-6-[4-(3-hydroxy-3-methyl-azetidine-1-carbonyl)phen-yl]-1,3-benzothiazol-2-yl}-2-(2-methoxyethane-sulfonyl)-N-[(5-methyl-1,3,4-oxadiazol-2-yl)methyl]acetamide]
0.0572	0.889	COCCNC(=O)c1ccc(-c2cc3sc(C(C(=O)NCc4nnc(C)o4)S(=O)(=O)CCOC)nc3cc2F)cc1 (centres unmarked) [Example B258, 4-{5-fluoro-2-[(2-methoxy-ethanesulfonyl)({[(5-methyl-1,3,4-oxadiazol-2-yl)methyl]carbamoyl})meth-yl]-1,3-benzothiazol-6-yl}-N-(2-methoxyeth-yl)benzamide]
0.032	0.0533	Cc1nnc(CNC(=O)C(c2nc3ccc(-c4ccc(C(=O)N5CC(F)(F)C5)cc4)cc3s2)S(C)(=O)=O)o1 (centres unmarked) [Example B257, 2-{6-[4-(3,3-difluoroazetidine-1-carbonyl)phen-yl]-1,3-benzothiazol-2-yl}-2-methanesulfonyl-N-[(5-methyl-1,3,4-oxadiazol-2-yl)methyl]a-cetamide]
0.0094	0.0073	COCc1ccc(-c2ccc3nc(C(C(=O)NCCS(N)(=O)=O)S(=O)(=O)CCC(F)(F)F)sc3c2)cc1 (centres unmarked) [Example B239, 2-{6-[4-(methoxymeth-yl)phenyl]-1,3-benzothiazol-2-yl}-N-(2-sulfamoyl-ethyl)-2-(3,3,3-trifluoro-propanesulfonyl)acetamide]
0.0064	0.607	CC(C)(O)CNC(=O)c1ccc(-c2ccc3nc(C(C(=O)NCCS(N)(=O)=O)S(C)(=O)=O)sc3c2)cc1 (centres unmarked) [Example B241, N-(2-hydroxy-2-methyl-propyl)-4-(2-{methane-sulfonyl[(2-sulfamoyl-ethyl)carbamoyl]methyl}-1,3-benzothiazol-6-yl)ben-zamide]
0.0053	0.0384	COC[C@H](C)NC(=O)c1ccc(-c2ccc3nc(C(C(=O)NCCS(N)(=O)=O)S(=O)(=O)Cc4ccc(OC(F)(F)F)cc4)sc3c2)cc1 (stereo partly drawn) [Example B250, N-[(2S)-1-methoxypropan-2-yl]-4-(2-{[(2-sulfamoyl-ethyl)carbamoyl][4-(trifluoromethoxy)phen-yl]methanesulfonylmethyl}-1,3-benzothiazol-6-yl)ben-zamide]
0.0051	3.05	Cn1nccc1-c1ccc2nc(C(C(=O)NCCS(N)(=O)=O)S(C)(=O)=O)sc2c1 (centres unmarked) [Example B235, 2-methanesulfonyl-2-[6-(1-methyl-1H-pyrazol-5-yl)-1,3-benzothiazol-2-yl]-N-(2-sulfamoylethyl)a-cetamide]
0.0028	0.0944	COCCN(C)C(=O)c1ccc(-c2ccc3nc(C(C(=O)NCCS(N)(=O)=O)S(C)(=O)=O)sc3c2)cc1F (centres unmarked) [Example B246, 2-fluoro-4-(2-{methanesul-fonyl[(2-sulfamoylethyl)car-bamoyl]methyl}-1,3-benzothiazol-6-yl)-N-(2-methoxyethyl)-N-methyl-benzamide]
0.0027	0.109	CC(C)(O)CNC(=O)c1ccc(-c2ccc3nc(C(C(=O)NCCS(N)(=O)=O)S(=O)(=O)Cc4ccc(F)cc4)sc3c2)cc1 (centres unmarked) [Example B242, 4-{2-[(4-fluorophenyl)meth-anesulfonyl[(2-sulfa-moylethyl)carbamoyl]meth-yl]-1,3-benzothiazol-6-yl}-N-(2-hydroxy-2-methylpropyl)benzamide]
